Measurements as given in patent US7655678B2, “Pharmaceutical composition for the management of tumors” (Council of Scientfic & Industrial Research, priority 2004, dated 2010).

What was measured:
[1] = test system: DMBA induced mouse skin tumor development; assay: chronic animal bioassay: DMBA induced mouse skin tumor development, topical treatment; format: in vivo, female Swiss albino mice; details: DMBA 200 ug/kg; Cag 240 mg/kg, NA 240 mg/kg, BA 8 mmoles/kg body wt; topical twice weekly; terminated after 30 weeks; 15 animals each group
Source text: We have used female Swiss albino mice from the inbred colony of Industrial Toxicology Research Center, Lucknow, India. The treatment schedule was followed as described earlier (22). Animals were shaved on the back (2×2 cm) in the interscapular region using surgical clippers. Only the animals in the resting phase of hair growth were selected for the study. For this chronic animal bioassay, we have taken 135 animals and divided them into 9 groups, consisting of 15 animals each. Group 1 served as negative control group where animals received acetone/DMSO only. For the entire study we have used 7,12-Dimethylbenz (a) anthracene (DMBA) as a skin carcinogen. DMBA was used at the dose of 200 μg/kg body wt in 0.1 ml acetone. In group 3, animals were treated with DMBA followed by concomitant application of Calcium D-glucarate (240 mg/kg body wt in 0.1 ml of DMSO). […] In group 5, animals were treated with DMBA followed by concomitant application of Butyric acid (8 mmoles in 0.1 ml of acetone). […] In group 7, animals were treated with DMBA followed by a concomitant application of Calcium D-glucarate, Butyric acid. […] All the treatments were applied topically. […] Animals were inspected regularly for tumor incidence, baldness, acne, poor health, sickness etc. Experiment was terminated after 30 weeks.
Experimental Design (15 Animals Each Group)

mouse skin papillomas = details: at higher concentrations; cited from earlier work
skin papilloma formation = details: topical, cited from earlier work; for rate of survival: SENCAR mice; for skin papilloma formation: from the ninth week of promotion
skin tumor formation = details: topical application; cited from earlier work

Compound | Cumulative no. of tumor [1] | No. of tumo bearing animal/Initial No. of animals [1] | Onset of firs tumor [in weeks] [1] | other results
NC(=O)c1cccnc1 [DMBA + NA, Nicotinamide] | 09 | 08/15 | 21 weeks | 100% tumorigenesis [in weeks] [1]: 0 weeks
O=C([O-])[C@@H](O)[C@@H](O)[C@H](O)[C@@H](O)C(=O)[O-].[Ca+2] [DMBA + CaG, Calcium D-glucarate] | 12 | 10/15 | 18 weeks | –
CC1=C(/C=C/C(C)=C/C=C/C(C)=C/C(=O)O)C(C)(C)CCC1 [retinoic acid] | – | – | – | cytotoxicity (mouse skin papillomas): cytotoxic
C=CCSCC=C [diallyl sulfide] | – | – | – | rate of survival (skin papilloma formation): significantly increased; skin papilloma formation (skin papilloma formation): significantly inhibited
Cc1c2ccccc2c(C)c2c1ccc1ccccc12 [DMBA, 7,12-Dimethylbenz (a) anthracene] | 62 | 15/15 | 15 weeks | 100% tumorigenesis [in weeks] [1]: 28 weeks
C=CCSSCC=C [diallyl disulfide] | – | – | – | rate of survival (skin papilloma formation): significantly increased; skin papilloma formation (skin papilloma formation): significantly inhibited
CC(C)=CCOc1ccc2ccc(=O)oc2c1 [7-Isopentenyloxucoumarin] | – | – | – | skin tumor formation (skin tumor formation): suppressed
